ChEMBL document CHEMBL1201862, “PubChem BioAssay data set” (2004)
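Test compounds were applied to cells in 96-well plates for 48 hours at 5 doses. The concentration for 50% growth inhibition is given as GI50.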 The source made the active and inactive calls. No stated cut-off is given here; in the data, active = GI50 up to about 1.1 µM and inactive = higher.

Legend:
Experiment in all cases: NCI-60 cell line screen, 48 h
OVCAR-4 = test system: OVCAR-4
LOX IMVI = test system: LOX IMVI
PC-3 = test system: PC-3
SK-OV-3 = test system: SK-OV-3
SF-539 = test system: SF-539
MDA-MB-435 = test system: MDA-MB-435
HOP-62 = test system: HOP-62
NCI-H522 = test system: NCI-H522
NCI/ADR-RES = test system: NCI/ADR-RES
DU-145 = test system: DU-145
Hs-578T = test system: Hs-578T
CAKI-1 = test system: CAKI-1
TK-10 = test system: TK-10
RXF 393 = test system: RXF 393
BT-549 = test system: BT-549
M14 = test system: M14
SNB-75 = test system: SNB-75

SMILES | GI50 (OVCAR-4) | GI50 (LOX IMVI) | GI50 (PC-3) | GI50 (SK-OV-3) | GI50 (SF-539) | GI50 (MDA-MB-435) | GI50 (HOP-62) | GI50 (NCI-H522) | GI50 (NCI/ADR-RES) | GI50 (DU-145) | GI50 (Hs-578T) | GI50 (CAKI-1) | GI50 (TK-10) | GI50 (RXF 393) | GI50 (BT-549) | GI50 (M14) | GI50 (SNB-75)
O=C1Cc2c(-c3ccccc3)cc(-c3cccc(Cl)c3)nc2-c2ccccc2N1 | 1.5 µM (inactive) | 2.04 µM (inactive) | 5.97 µM (inactive) | 1.86 µM (inactive) | 6.34 µM (inactive) | 8.91 µM (inactive) | 1.38 µM (inactive) | 1.05 µM (active) | 2.05 µM (inactive) | 2.61 µM (inactive) | 2.09 µM (inactive) | 1.82 µM (inactive) | 1.49 µM (inactive) | 2.15 µM (inactive) | 6.61 µM (inactive) | 8.09 µM (inactive) | 1.77 µM (inactive)
O=c1ccn(CC2(CO)CC(Cc3ccccc3)C2)c(=O)[nH]1 (stereo not given) | > 100 µM (inactive) | > 100 µM (inactive) | > 100 µM (inactive) | > 100 µM (inactive) | > 100 µM (inactive) | > 100 µM (inactive) | > 100 µM (inactive) | > 100 µM (inactive) | > 100 µM (inactive) | > 100 µM (inactive) | > 100 µM (inactive) | > 100 µM (inactive) | > 100 µM (inactive) | > 100 µM (inactive) | > 100 µM (inactive) | – | > 100 µM (inactive)
[N-]=[N+]=Nc1c(C=O)c(=O)n2c3c(cccc13)CCC2 | 2.24 µM (inactive) | 10.3 µM (inactive) | 12.1 µM (inactive) | 19 µM (inactive) | 16.1 µM (inactive) | 6.89 µM (inactive) | 18 µM (inactive) | 2.13 µM (inactive) | 7.76 µM (inactive) | 5.15 µM (inactive) | 15.3 µM (inactive) | 2.94 µM (inactive) | 4.74 µM (inactive) | 1.76 µM (inactive) | 2.65 µM (inactive) | 1.95 µM (inactive) | 14.2 µM (inactive)
O=P1(N2CCOCC2)OCCO1 | > 100 µM (inactive) | > 100 µM (inactive) | > 100 µM (inactive) | – | – | > 100 µM (inactive) | – | > 100 µM (inactive) | > 100 µM (inactive) | > 100 µM (inactive) | > 100 µM (inactive) | > 100 µM (inactive) | – | > 100 µM (inactive) | – | > 100 µM (inactive) | –
CCSc1nc(N)c2c(-c3ccc(OC)c(OC)c3)c3c(nc2n1)CCCC3 | > 100 µM (inactive) | > 100 µM (inactive) | > 100 µM (inactive) | > 100 µM (inactive) | > 100 µM (inactive) | > 100 µM (inactive) | > 100 µM (inactive) | – | > 100 µM (inactive) | > 100 µM (inactive) | > 100 µM (inactive) | > 100 µM (inactive) | > 100 µM (inactive) | > 100 µM (inactive) | > 100 µM (inactive) | > 100 µM (inactive) | 58.2 µM (inactive)
CN1CC=C(c2cccn2C)CC1 | > 100 µM (inactive) | > 100 µM (inactive) | > 100 µM (inactive) | > 100 µM (inactive) | – | > 100 µM (inactive) | > 100 µM (inactive) | > 100 µM (inactive) | > 100 µM (inactive) | > 100 µM (inactive) | > 100 µM (inactive) | > 100 µM (inactive) | > 100 µM (inactive) | > 100 µM (inactive) | > 100 µM (inactive) | > 100 µM (inactive) | > 100 µM (inactive)
CCOC(=O)c1c(-c2ccccc2)c(C)cn1C | > 10 µM (inactive) | – | – | > 10 µM (inactive) | > 10 µM (inactive) | > 10 µM (inactive) | – | > 10 µM (inactive) | > 10 µM (inactive) | > 10 µM (inactive) | > 10 µM (inactive) | – | > 10 µM (inactive) | > 10 µM (inactive) | > 10 µM (inactive) | > 10 µM (inactive) | > 10 µM (inactive)
C=C1OC(=O)[C@]2([C@@H](/C=C/C)C=CC(=O)[C@H]2O)[C@@H]1O | > 100 µM (inactive) | > 100 µM (inactive) | > 100 µM (inactive) | > 100 µM (inactive) | > 100 µM (inactive) | > 100 µM (inactive) | > 100 µM (inactive) | > 100 µM (inactive) | > 100 µM (inactive) | > 100 µM (inactive) | > 100 µM (inactive) | > 100 µM (inactive) | > 100 µM (inactive) | > 100 µM (inactive) | – | > 100 µM (inactive) | > 100 µM (inactive)
COP(=O)(OC)[C@H](O)[C@H]1C[C@@H]1c1ccccc1 | > 100 µM (inactive) | > 100 µM (inactive) | > 100 µM (inactive) | > 100 µM (inactive) | – | > 100 µM (inactive) | > 100 µM (inactive) | > 100 µM (inactive) | > 100 µM (inactive) | > 100 µM (inactive) | 18.9 µM (inactive) | > 100 µM (inactive) | > 100 µM (inactive) | > 100 µM (inactive) | > 100 µM (inactive) | > 100 µM (inactive) | > 100 µM (inactive)
Cc1c(OCc2ccccc2)c(=O)ccn1CCc1c[nH]c2ccccc12 | – | 44.6 µM (inactive) | 30.9 µM (inactive) | > 100 µM (inactive) | 43.4 µM (inactive) | 20 µM (inactive) | > 100 µM (inactive) | 21.3 µM (inactive) | 86.7 µM (inactive) | 25.9 µM (inactive) | 27.2 µM (inactive) | – | 40.6 µM (inactive) | – | 44.6 µM (inactive) | 30 µM (inactive) | –
COC(=O)C1(c2ccc(N(C)C)cc2OC)CCCN(C(=O)Oc2ccccc2[N+](=O)[O-])CCc2c1[nH]c1ccccc21 (stereo not given) | – | > 100 µM (inactive) | > 100 µM (inactive) | > 100 µM (inactive) | > 100 µM (inactive) | > 100 µM (inactive) | > 100 µM (inactive) | > 100 µM (inactive) | > 100 µM (inactive) | > 100 µM (inactive) | > 100 µM (inactive) | > 100 µM (inactive) | > 100 µM (inactive) | > 100 µM (inactive) | > 100 µM (inactive) | > 100 µM (inactive) | > 100 µM (inactive)
COC(=O)C1=C(O)C(C(=O)OC)[C@]2(O)[C@@H](C(=O)OC)[C@H]1C[C@@H](c1ccccc1)[C@@H]2C(=O)OC (stereo not given in full) | – | 15.4 µM (inactive) | – | 17.4 µM (inactive) | 12.6 µM (inactive) | 7.71 µM (inactive) | 20 µM (inactive) | 6.71 µM (inactive) | – | 11.9 µM (inactive) | 17.2 µM (inactive) | – | 23.7 µM (inactive) | 5.08 µM (inactive) | 15.8 µM (inactive) | 10.8 µM (inactive) | 16.9 µM (inactive)
COc1cc(CCCl)c(CC2=NCCc3cc(OC)c(OC)cc32)cc1OC | > 100 µM (inactive) | 21.1 µM (inactive) | 41.1 µM (inactive) | > 100 µM (inactive) | 4.61 µM (inactive) | 89.9 µM (inactive) | 20.8 µM (inactive) | – | > 100 µM (inactive) | > 100 µM (inactive) | 14.9 µM (inactive) | 34 µM (inactive) | 30.2 µM (inactive) | 32.3 µM (inactive) | > 100 µM (inactive) | 50.1 µM (inactive) | > 100 µM (inactive)
CN(CCCCCl)P(=O)(OCC1=CC(=O)c2ccccc2C1=O)OC[C@H]1O[C@@H](n2cc(F)c(=O)[nH]c2=O)C[C@@H]1O (stereo not given in full) | 0.681 µM (active) | < 0.01 µM (active) | 0.165 µM (active) | – | < 0.0244 µM (active) | 0.684 µM (active) | 0.0415 µM (active) | 0.239 µM (active) | – | 0.052 µM (active) | < 0.01 µM (active) | < 0.0115 µM (active) | 1.45 µM (inactive) | 0.0625 µM (active) | 9.06 µM (inactive) | 0.0897 µM (active) | < 0.0176 µM (active)
O=C1Oc2ccc([N+](=O)[O-])cc2N/C1=C\C(=O)c1ccccc1 | > 100 µM (inactive) | > 100 µM (inactive) | 72.4 µM (inactive) | > 100 µM (inactive) | – | > 100 µM (inactive) | > 100 µM (inactive) | 76.2 µM (inactive) | > 100 µM (inactive) | > 100 µM (inactive) | > 100 µM (inactive) | > 100 µM (inactive) | 25.1 µM (inactive) | > 100 µM (inactive) | > 100 µM (inactive) | > 100 µM (inactive) | 80 µM (inactive)
COC(CN(C(C)=O)C1CCC2(SCCS2)c2[nH]c3ccccc3c21)OC (stereo not given) | 62.7 µM (inactive) | 0.0422 µM (active) | > 100 µM (inactive) | – | > 100 µM (inactive) | > 100 µM (inactive) | > 100 µM (inactive) | > 100 µM (inactive) | > 100 µM (inactive) | > 100 µM (inactive) | 54.6 µM (inactive) | > 100 µM (inactive) | > 100 µM (inactive) | 38.6 µM (inactive) | > 100 µM (inactive) | > 100 µM (inactive) | > 100 µM (inactive)
COc1cc(C)cc2c1C(=O)C(NC(C)=O)=CC2=O | 24.6 µM (inactive) | – | > 100 µM (inactive) | > 100 µM (inactive) | > 100 µM (inactive) | 17.3 µM (inactive) | > 100 µM (inactive) | > 100 µM (inactive) | > 100 µM (inactive) | > 100 µM (inactive) | 55.1 µM (inactive) | > 100 µM (inactive) | > 100 µM (inactive) | > 100 µM (inactive) | > 100 µM (inactive) | > 100 µM (inactive) | 45.7 µM (inactive)
CCCCCc1cccc(=O)o1 | > 100 µM (inactive) | > 100 µM (inactive) | > 100 µM (inactive) | > 100 µM (inactive) | > 100 µM (inactive) | > 100 µM (inactive) | > 100 µM (inactive) | > 100 µM (inactive) | > 100 µM (inactive) | > 100 µM (inactive) | > 100 µM (inactive) | > 100 µM (inactive) | > 100 µM (inactive) | > 100 µM (inactive) | > 100 µM (inactive) | > 100 µM (inactive) | –
